Read-outs that look alike come from different tables or passages of the source.
Key:
Parameters in all cases: species or system Hepatitis C virus (HCV)
[1] = tested on: HCV replicon 2B; experiment: Cell-based HCV replicon assay (Replicon Assay A), replicon 2B; conditions: read-out: Replicon EC50 (nM) 2B, replicon 2B, replicon RNA by real time PCR, cells harvested on day 3
Experimental: (§1) To measure cell-based anti-HCV activity of compounds of the present invention, two complimentary assays were employed using various replicons. In the first assay (“Replicon Assay A”), replicon cells were seeded at 2000 cells/well in 384-well 384-well flat bottom tissue culture treated clear bottom plate (Corning 3707) in the presence of the test compound. Various concentrations of test compound, typically in 10 serial dilutions, were added to the assay mixture, with the starting concentration ranging from 333.3 nM to […]. The final concentration of DMSO was 0.5%. Fetal bovine serum was 5%, in the assay media. Cells were harvested on day 3 by removing media and washing the cells with a suitable wash buffer. The cells are lysed with the addition of 1× Qiagen lysis buffer (Cat #1062731). The replicon RNA level was measured using real time PCR (TaqMan® EZ RT-PCR, Applied Biosystems 403028) with the following primers and probes: […]
(§2) Cyclophilin RNA was used as endogenous control and was amplified in the same reaction as NS5B (multiplex PCR). The real-time RT-PCR reactions were run on ABI PRISM 7900HT Sequence Detection System using the following program: 50° C. for 2 minutes, 60° C. for 30 minutes, 95° C. for 5 minutes, 40 cycles of 94° C. for 20 sec, 55° C. for 1 minutes.
(§3) The amount of HCV replicon RNA per cell is quantified using a linear regression curve for a known nanogram (ng) amount of HCV replicon total RNA. This is established by plotting the Cycle Threshold values (Ct) from the Neo probe and primer set versus the log (ng) for each HCV replicon total RNA standard. The amount of HCV RNA for each replicon sample is calculated by taking the sample's Ct value, minus the line intercept, divided by the slope of the line. Similarly, the amount of Cyclophilin mRNA per cell is also quantified using a linear regression curve for a known nanogram (ng) amount of HCV replicon total RNA. Again, this is established by plotting the Cycle Threshold values (Ct) from the Cyclophilin probe and primer set versus the log (ng) for each HCV replicon total RNA standard.
(§4) Data was obtained for various compounds of the present invention using the methods described in the Example above, and is presented in the table immediately below. Data for replicons 1A, 1AY93H and 2B were obtained using Replicon Assay A and data for replicons 1B were obtained using Replicon Assay B.

[2] = tested on: HCV replicon 1A; experiment: Cell-based HCV replicon assay (Replicon Assay A), replicon 1A; conditions: replicon RNA by real time PCR, cells harvested on day 3
Experimental: as §1, §2, §3, §4

[3] = tested on: HCV replicon 1B; experiment: Cell-based HCV replicon assay (Replicon Assay B), replicon 1B; conditions: replicon RNA by real-time PCR, incubated for 3 days
Experimental: In an alternate assay (“Replicon Assay B”), 1000 cells were seeded per well in a 384-well collagen coated black plate from Greiner bio-one (Cat #781946) in 5% FBS. Inhibitors of this invention were added at 24 h post-seeding, and the plates were incubated for 3 days. Cells were subsequently lysed with Qiagen lysis buffer (Cat #1062731) to extract the RNA. HCV replicon RNA level was measured by real-time PCR using the RNA-to-CT kit from Applied Biosystem (Cat #4392656) and genotype-specific primers and probes. The amplicon was located within NSSB. The sequence of the PCR primers are as follows: 5B.2F, ATGGACAGGCGCCCTGA (SEQ. ID NO. 1); 5B.2R, […] (SEQ. ID NO. 2); the probe sequence was FAM-labeled CACGCCATGCGCTGCGG (SEQ. ID NO. 3). To detect genotype 1A the primer 1A F, TGCGGAACCGGTGAGTACA and 1A R, […] were used; the probe sequence was FAM-[…].
The real-time RT-PCR reactions were run on ABI PRISM 7900HT or Viia7 Sequence Detection System using the following program: 48° C. for 30 minutes, 95° C. for 10 minutes, 40 cycles of 95° C. for 15 sec, 60° C. for 1 minutes. The 50% effective concentration (EC50) was the drug concentration necessary to achieve an increase in the cycle threshold (CT) of 1 over the projected baseline CT.
as §4

[4] = tested on: HCV replicon 1A Y93H; experiment: Cell-based HCV replicon assay (Replicon Assay A), replicon 1AY93H; conditions: read-out: Replicon EC50 (nM) 1A Y93H, replicon 1A Y93H, replicon RNA by real time PCR, cells harvested on day 3
Experimental: as §1, §2, §3, §4

Compound	EC50 ([1]; Hepatitis C virus, 72 h)	EC50 ([2]; Hepatitis C virus, 72 h)	EC50 ([3]; Hepatitis C virus, 72 h)	EC50 ([4]; Hepatitis C virus, 72 h)	EC50 [1]	EC50 [2]	EC50 [4]	EC50 [3]
COC(=O)N[C@H](C(=O)N1CCC[C@H]1c1ncc(-c2cc(F)c3c(c2)OC(c2cc(C(C)C)no2)n2c-3cc3cc(-c4cnc([C@@H]5CCCN5C(=O)[C@@H](NC(=O)OC)C(C)C)[nH]4)ccc32)[nH]1)C(C)C (mixture of isomers) [Compound 6]	0.36 nM	0.0017 nM	0.0018 nM	0.088 nM	–	–	–	–
COC(=O)N[C@H](C(=O)N1CCC[C@H]1c1ncc(-c2cc(F)c3c(c2)OC(c2csnn2)n2c-3cc3cc(-c4cnc([C@@H]5CCCN5C(=O)[C@@H](NC(=O)OC)C(C)C)[nH]4)ccc32)[nH]1)C(C)C (mixture of isomers) [Compound 37]	1.32 nM	0.004 nM	0.0036 nM	0.857 nM	–	–	–	–
COC(=O)N[C@H](C(=O)N1CCC[C@H]1c1ncc(-c2cc(F)c3c(c2)OC(c2nc4ccccc4o2)n2c-3cc3cc(-c4cnc([C@@H]5CCCN5C(=O)[C@@H](NC(=O)OC)C(C)C)[nH]4)ccc32)[nH]1)C(C)C (single isomer, unassigned) [Compound 20]	–	–	0.0026 nM	–	0.32 nM	0.0023 nM	0.075 nM	–
COC(=O)N[C@H](C(=O)N1CCC[C@H]1c1ncc(-c2cc(F)c3c(c2)OC(c2cnns2)n2c-3cc3cc(-c4cnc([C@@H]5CCCN5C(=O)[C@@H](NC(=O)OC)C(C)C)[nH]4)ccc32)[nH]1)C(C)C (single isomer, unassigned) [Compound 22]	–	0.0015 nM	0.0024 nM	–	0.14 nM	–	0.048 nM	–
COC(=O)N[C@H](C(=O)N1CCC[C@H]1c1ncc(-c2cc(F)c3c(c2)OC(c2cc(C(C)C)no2)n2c-3cc3cc(-c4cnc([C@@H]5CCCN5C(=O)[C@@H](NC(=O)OC)C(C)C)[nH]4)ccc32)[nH]1)C(C)C (single isomer, unassigned) [Compound 25]	–	0.0012 nM	0.0011 nM	–	0.3 nM	–	0.026 nM	–
COC(=O)N[C@H](C(=O)N1CCC[C@H]1c1ncc(-c2cc(F)c3c(c2)OC(c2cc(C4CC4)no2)n2c-3cc3cc(-c4cnc([C@@H]5CCCN5C(=O)[C@@H](NC(=O)OC)C(C)C)[nH]4)ccc32)[nH]1)C(C)C (single isomer, unassigned) [Compound 30]	–	0.0012 nM	0.0017 nM	–	0.06 nM	–	0.026 nM	–
COC(=O)N[C@H](C(=O)N1CCC[C@H]1c1ncc(-c2cc(F)c3c(c2)OC(c2nc(C(C)C)ns2)n2c-3cc3cc(-c4cnc([C@@H]5CCCN5C(=O)[C@@H](NC(=O)OC)C(C)C)[nH]4)ccc32)[nH]1)C(C)C (single isomer, unassigned) [Compound 31]	1.64 nM	0.0013 nM	–	–	–	–	5.65 nM	–
COC(=O)N[C@H](C(=O)N1CCC[C@H]1c1ncc(-c2cc(F)c3c(c2)OC(c2nc(C(C)C)ns2)n2c-3cc3cc(-c4cnc([C@@H]5CCCN5C(=O)[C@@H](NC(=O)OC)C(C)C)[nH]4)ccc32)[nH]1)C(C)C (single isomer, unassigned) [Compound 32]	–	–	–	–	0.9 nM	0.0022 nM	0.185 nM	–
CCc1nnc(C2Oc3cc(-c4cnc([C@@H]5CCCN5C(=O)[C@@H](NC(=O)OC)C(C)C)[nH]4)cc(F)c3-c3cc4cc(-c5cnc([C@@H]6CCCN6C(=O)C(NC(=O)OC)C(C)C)[nH]5)ccc4n32)s1 (single isomer, unassigned) [Compound 33]	–	–	0.0026 nM	–	–	0.0028 nM	–	–
COC(=O)N[C@H](C(=O)N1CCC[C@H]1c1ncc(-c2cc(F)c3c(c2)OC(c2coc(C4CC4)n2)n2c-3cc3cc(-c4cnc([C@@H]5CCCN5C(=O)[C@@H](NC(=O)OC)C(C)C)[nH]4)ccc32)[nH]1)C(C)C (single isomer, unassigned) [Compound 35]	–	0.0034 nM	0.003 nM	–	–	–	–	–
COC(=O)N[C@H](C(=O)N1CCC[C@H]1c1ncc(-c2cc(F)c3c(c2)OC(c2coc(C4CC4)n2)n2c-3cc3cc(-c4cnc([C@@H]5CCCN5C(=O)[C@@H](NC(=O)OC)C(C)C)[nH]4)ccc32)[nH]1)C(C)C (single isomer, unassigned) [Compound 36]	0.11 nM	–	–	0.102 nM	–	0.0023 nM	–	0.0029 nM
COC(=O)N[C@H](C(=O)N1CCC[C@H]1c1ncc(-c2cc(F)c3c(c2)OC(c2cc4ccccn4n2)n2c-3cc3cc(-c4cnc([C@@H]5CCCN5C(=O)[C@@H](NC(=O)OC)C(C)C)[nH]4)ccc32)[nH]1)C(C)C (single isomer, unassigned) [Compound 39]	–	–	–	–	0.33 nM	0.0068 nM	1.66 nM	–
COC(=O)N[C@H](C(=O)N1CCC[C@H]1c1ncc(-c2cc(F)c3c(c2)OC(c2cc4ccccn4n2)n2c-3cc3cc(-c4cnc([C@@H]5CCCN5C(=O)[C@@H](NC(=O)OC)C(C)C)[nH]4)ccc32)[nH]1)C(C)C (single isomer, unassigned) [Compound 40]	–	–	–	–	1.54 nM	0.0084 nM	0.536 nM	–
COC(=O)N[C@H](C(=O)N1CCC[C@H]1c1ncc(-c2cc(F)c3c(c2)OC(c2cc4ccccn4n2)n2c-3cc3cc(-c4cnc([C@@H]5CCCN5C(=O)[C@@H](NC(=O)OC)C(C)C)[nH]4)ccc32)[nH]1)C(C)C (single isomer, unassigned) [Compound 41]	–	–	–	–	0.57 nM	0.0019 nM	0.317 nM	–
COC(=O)N[C@H](C(=O)N1CCC[C@H]1c1ncc(-c2cc(F)c3c(c2)OC(c2cn4ccccc4n2)n2c-3cc3cc(-c4cnc([C@@H]5CCCN5C(=O)[C@@H](NC(=O)OC)C(C)C)[nH]4)ccc32)[nH]1)C(C)C (stereo partly shown) [Compound 14]	–	0.0057 nM	0.0078 nM	–	–	–	–	–
COC(=O)N[C@H](C(=O)N1CCC[C@H]1c1ncc(-c2ccc3c(c2)OC(c2ccc(C)o2)n2c-3cc3cc(-c4cnc([C@@H]5CCCN5C(=O)[C@@H](NC(=O)OC)C(C)C)[nH]4)ccc32)[nH]1)C(C)C (stereo partly shown) [Compound 42]	6.16 nM	0.0309 nM	–	5.01 nM	–	–	–	–
COC(=O)N[C@H](C(=O)N1CCC[C@H]1c1ncc(-c2ccc3c(c2)OC(c2ccc(C)o2)n2c-3cc3cc(-c4cnc([C@@H]5C[C@@H](F)CN5C(=O)[C@@H](NC(=O)OC)C(C)C)[nH]4)ccc32)[nH]1)C(C)C (stereo partly shown) [Compound 43]	0.06 nM	0.0281 nM	–	1.02 nM	–	–	–	–

Source: US10646494B2, “Heterocycle-substituted tetracyclic compounds and methods of use thereof for the treatment of viral diseases” (Merck Sharp & Dohme Corp., priority 2016, dated 2020)
